Converted amounts (≈) assume the structure as drawn. Like-named read-outs stand apart in the source and are kept apart here.
Assays:
[1] = test system: human tumor xenograft models; assay: Human tumor xenograft models; type: in vivo; conditions: single agent
[2] = test system: bovine chondrocyte pellets / ARC tissues stimulated with IL-1β; assay: Chondrocyte pellet / ARC culture model: GAG degradation assay; type: cell-based; conditions: at 5 μM, 7.5 ng/ml IL-1, five days
chondrocytes = type: cell-based
Protocol: The LDH activity was determined calorimetrically in an enzymatic test based on the conversion of lactic acid to pyruvate in the presence of chromagenic substrate tetrazolium salt INT that was reduced to formazan.

[3] = test system: bovine chondrocyte pellets / ARC tissues stimulated with IL-1β; assay: Chondrocyte pellet / ARC culture model: GAG degradation assay; type: cell-based; conditions: Bos taurus, Chondrocyte; at 5 μM; read-out: GAG Release (inhibition), Pellet Assay
Description: A chondrocyte pellet culture model was developed for in vitro high throughput screening of therapeutic compounds for inhibition of IL-1β-stimulated matrix degradation. The chondrocyte pellet culture model can be used to detect various potential therapeutic compounds effective in blocking different processes caused by IL-1β stimulation. For example, IL-1β stimulation results in increased glycosaminoglycan (GAG) degradation, prostaglandin E2 (PGE2) synthesis and total nitrite/nitrate production. Compounds with different mechanisms of action may inhibit the increase of one or two or all three of these parameters. For this reason, screening by, for example, measuring only GAG release would be limited to detection of a specific class of inhibitors and may not detect compounds with diversified mechanisms of function which may be involved in inhibition of the IL-1 stimulated inflammatory process. The development of the chondrocyte pellet culture assay system in a 96-well plate made possible large-scale screening of potential therapeutic compounds with different mechanisms of action.
(§1) Calf articular cartilage was obtained from the knee joints of eight to twelve month old animals and was processed within twenty-four hours after sacrifice. After removal of muscle and ligament, the cartilage was kept moist using phosphate buffer solution (PBS) to prevent tissue dehydration, and was aseptically peeled off from subchondral bone with a scalpel, and the cartilage pieces were further minced into smaller pieces (˜0.3-0.5×˜0.2-0.5 cm cubes). […] Chondrocytes were then enzymatically isolated from the tissue by incubation for overnight at 37° C. with gentle agitation in 0.2% collagenase in Dulbecco's modified eagle media (DMEM). After removal of tissue debris by filtration through cell strainer and the residual collagenase by 3× wash in PBS, cells were finally resuspended at a density of 2.5×10^6 cells/ml in chondrocyte medium. A 1 ml aliquot of the cell suspension was dispensed into either a 15 ml Falcon centrifuge tube or a 96 deep-well plate and centrifuged at 2000×g for five minutes. The chondrocyte pellets were incubated at 37° C. in a humidified atmosphere of 5% CO2 for two to three weeks with a medium change every other day.
(§2) As an alternative to using calf articular cartilage, a commercial Aliginate Recovered Chondrocytes (ARC) system was also used (Articular Engineering, LLC (Northbrook, Ill.)). Use of the commercial system cut down on labor and time in producing chondrocyte pellet. This system produced cartilaginous tissue in vitro using bovine chondrocytes. The first step consisted of culturing chondrocytes in alginate under conditions optimal for the formation of a cell-associated matrix (CM). The second step allowed these cells with their CM, after recovery, to rapidly form and become integrated into a solid mass of cartilage on a porous insert within two weeks.
This tissue is rich in cells surrounded by a cell-associated matrix that is degraded rapidly when the cells are exposed to IL-1. ARC tissues in 3 mm punches at delivery were first dispensed into a 96 deep-well plate, one punch per well, for compound treatment. The subsequent procedures were the same as those used for the chondrocyte pellets.
(§3) Chondrocyte pellets were washed once with 1 ml of Chondrocyte Stimulation Medium and equilibrated in the same medium at room temperature for fifteen to thirty minutes. Compounds were dissolved in H2O, Ethanol or dimethyl sulfoxide (DMSO) (10^−2 M) according to suppliers' instructions and further diluted with Chondrocyte Stimulation Medium to the required concentrations. DMSO concentrations in the culture media should not exceed 1%; this concentration of DMSO has no effect on cartilage proteoglycan metabolism in response to cytokines.
The pellets were first treated with compounds at desired concentrations at 37° C. for one hour and then incubated for three to five days in the absence or presence of 10 ng/ml of IL-1β. […]

CDK1 = CDK1 (Homo sapiens, UniProt P06493); assay: CDK1 inhibition; type: biochemical
Sequence of CDK1 (P06493 whole entry, species assumed): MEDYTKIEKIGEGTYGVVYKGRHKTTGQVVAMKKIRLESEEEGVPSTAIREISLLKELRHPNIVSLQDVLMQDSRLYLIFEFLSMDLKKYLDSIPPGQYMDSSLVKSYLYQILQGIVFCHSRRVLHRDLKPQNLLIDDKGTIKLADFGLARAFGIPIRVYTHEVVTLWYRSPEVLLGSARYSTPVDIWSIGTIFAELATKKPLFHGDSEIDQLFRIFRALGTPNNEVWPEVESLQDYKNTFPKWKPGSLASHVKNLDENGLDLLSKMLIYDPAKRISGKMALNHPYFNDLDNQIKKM
Sequence of CDK1 (P14635 whole entry partner, species assumed): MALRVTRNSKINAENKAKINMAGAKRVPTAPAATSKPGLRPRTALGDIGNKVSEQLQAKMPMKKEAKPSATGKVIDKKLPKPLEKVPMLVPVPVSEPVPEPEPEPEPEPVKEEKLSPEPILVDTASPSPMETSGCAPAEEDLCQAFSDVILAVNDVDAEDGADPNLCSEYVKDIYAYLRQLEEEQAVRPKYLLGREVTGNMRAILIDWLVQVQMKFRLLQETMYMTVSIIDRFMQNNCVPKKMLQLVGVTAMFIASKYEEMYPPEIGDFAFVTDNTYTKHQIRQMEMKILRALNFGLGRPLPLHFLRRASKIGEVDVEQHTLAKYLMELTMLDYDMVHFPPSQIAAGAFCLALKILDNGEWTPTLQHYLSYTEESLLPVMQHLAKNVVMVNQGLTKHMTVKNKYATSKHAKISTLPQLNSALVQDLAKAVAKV

[4] = test system: IL-1β-stimulated NO production in bovine chondrocyte pellets / ARC tissues; assay: Chondrocyte pellet / ARC culture model: total nitrite and nitrate assay; type: cell-based; conditions: at 5 μM
Description: as §1, §2, §3
(§4) The pellets were first treated with compounds at desired concentrations at 37° C. for one hour and then incubated for three to five days in the absence or presence of 10 ng/ml of IL-1β. At the end of the incubation, media and pellets were harvested and frozen for further analysis. Pellets were also fixed as needed in 4% (w/v) paraformaldehyde in PBS for histology analysis.
(§5) Nitrate/Nitrite levels were measured using the Griess reaction (Green L. C. et al., “Analysis of Nitrate, Nitrite, and [15N]nitrate in Biological Fluids,” Anal. Biochem. 126: 131-138 (1982)) with a Nitrate/Nitrite Colorimetric Assay Kit (Cayman Chemicals), the contents of which are incorporated herein by reference. The assay involved a simple two-step process. The first step involved conversion of nitrate in 50 μl of culture medium to nitrite utilizing nitrate reductase in a reaction volume of 100 μl at room temperature for two hours. The second step involved the addition of 50 μl of both Griess Reagent 1 and 2, which converted nitrite into a deep purple azo compound in ten minutes. Photometric measurement of the absorbance at 540 or 550 nm due to this azo chromophore accurately determined nitrite concentration. This assay kit cannot be used for RPMI (Roswell Park Memorial Institute) derived tissue culture medium due to interference with the colorimetric reaction.
(§6) To characterize the relative efficacies among different p38 MAP kinase inhibitors, dose-response curves were generated for both PGE2 and NO assays. […] After one hour of treatment, ARCs were stimulated with or without 7.5 ng/ml IL-1β and continued to incubate for five days before assay. […]

human cancer cell lines = assay: Cell proliferation in culture; type: cell-based
Water solubility = type: physicochemical
[5] = test system: IL-1β-stimulated PGE2 synthesis in bovine chondrocyte pellets / ARC tissues; assay: Chondrocyte pellet / ARC culture model: Prostaglandin E2 assay; type: cell-based
Description: as §1, §2, §3, §4
(§7) Prostaglandin E2 (PGE2) was measured with a STAT-Prostaglandin E2 EIA ELISA kit (Cayman Biochemicals). This assay is based on the competition between PGE2 from 50 μl samples and a PGE2-alkaline phosphatase conjugate for a limited amount of PGE2 monoclonal antibody in a reaction volume of 150 μl at room temperature for one hour. The antibody-PGE2 complex bound to a goat polyclonal anti-mouse IgG that had been previously attached to the well. After washing to remove any unbound reagents, para-nitrophenyl phosphate (pNPP) was added to the well. The product of this enzymatic reaction absorbs strongly at 412 nm. Because of the large range in response to IL-1β and other cytokines, PGE2 values were converted to log scale prior to doing t-tests.
as §6, with “assay. The IL-1β-stimulated PGE2 synthesis or NO production was first calculated by subtraction of PGE2/NO levels in the absence of IL-1β from that in the presence of IL-1β.” for “assay.”

[6] = test system: human ARC tissues (human chondrocytes) stimulated with TNFα, IL-1β or IL-6 + IL-6SR; assay: Human ARC tissues: GAG release; type: cell-based
Protocol: Glycosaminoglycan (GAG) levels in the culture media were determined by measuring the amount of polyanionic material reacting with 1,9-dimethylmethylene blue (DME) as detected by absorbance at 525 nm, using shark chondroitin sulfate as a standard. The DME blue dye-binding solution was prepared by dissolving 16 mg of DME blue in a solution containing 0.304% glycine, 0.23% sodium chloride (NaCl), 9.5 mM hydrochloric acid (HCl), pH=3.0 with absorbance at 525 equal to 0.31. Proteoglycans and proteoglycan metabolites in chondrocyte pellet were released by digesting the pellet with 125 μg/ml of papain in 0.1 M PBS, pH 6.0, 5 mM cysteine, 5 mM ethylene-diamine-tetra-acetic acid disodium salt (Na2EDTA) at 50° C. for overnight. Results are reported as either micrograms of GAG per milliliter or percent of total GAG released into culture medium.
(§8) ® infliximab is a monoclonal antibody against human TNFα. To test whether […]® could modulate cytokine-stimulated responses in chondrocytes, human chondrocyte pellets were first tested for an optimal concentration for cytokine stimulation. Human ARC (i.e., ARCs generated using human chondrocytes) tissues were treated with various concentrations of either TNF or IL-1 for four and five days. The culture media was collected for measurement of GAG content as described above. Other assays were performed as described above. Cytokine dosage at 5 ng/ml and treatment for five days gave a reasonable treatment window, yet was not too challenging for compound efficacy (FIG. 4).
(§9) Human ARC tissues were then treated with various concentrations of […]® in the presence or absence of either 10 ng/ml of TNFα or 5 ng/ml of IL-1β for four or five days.
The efficacy of a monoclonal antibody (mAb) against human IL-6 in inhibition of proteoglycan degradation, NO production and PGE2 synthesis on human ARC tissues stimulated with IL-6 was also tested. Human ARC tissue were treated with 12.5, 25 and 250 ng/ml of IL-6 mAb diluted into chondrocyte stimulation medium. […]

[7] = test system: cytokine-stimulated NO production in human ARC tissues; assay: Human ARC tissues: NO production; type: cell-based
Protocol: as §5, §8, §9
The efficacy of a monoclonal antibody (mAb) against human IL-6 in inhibition of proteoglycan degradation, NO production and PGE2 synthesis on human ARC tissues stimulated with IL-6 was also tested. […]

[8] = in vivo; cited from earlier work
[9] = test system: cytokine-stimulated PGE2 synthesis in human ARC tissues; assay: Human ARC tissues: PGE2 synthesis; type: cell-based; conditions: for PGE2 Inhibition, Pellet Assay: TNFα stimulated responses
Protocol: as §7, §8, §9
The efficacy of a monoclonal antibody (mAb) against human IL-6 in inhibition of proteoglycan degradation, NO production and PGE2 synthesis on human ARC tissues stimulated with IL-6 was also tested. Human ARC tissue were treated with 12.5, 25 and 250 ng/ml of IL-6 mAb diluted into chondrocyte stimulation medium. After one hour of treatment at 37° C., ARCs were stimulated with or without 25 ng/ml IL-6, 250 ng/ml IL-6 soluble receptor (IL-6SR) or IL-6 (25 ng/ml)+L-6SR (250 ng/ml) and incubated for five days before the culture media were harvested for assays.

[10] = test system: aggrecan and collagen type 2 mRNA in bovine AF and NP cells; assay: 3D in vitro disc cell model: Taqman gene expression; type: cell-based; conditions: 10 ng/ml IL-1β; inhibitor 1 μM, rhGDF-5 200 ng/ml
Description: (§10) Three-dimensional in vitro annulus fibrosis (AF) and nucleus pulposus (NP) models were established to investigate proteoglycan modulation and changes in gene expression in response to inflammatory cytokines such as interleukin-1 (e.g., IL-1β) and potential therapeutic agents such as growth and differentiation factor (GDF-5), and p38 MAP kinase inhibitors. AF and NP cells from bovine caudal discs were isolated by enzymatic digestion and seeded (2×10^6 cells/cm^2) onto Millipore CM filters coated with Collagen Type II and cultured in DMEM/20% heat-inactivated FBS, 100 ug/ml ascorbic acid and 5 ng/ml TGFβ1. […] Results were evaluated by histology (Tol. Blue staining was used to observe matrix production). Dimethylmethylene blue (DMMB) was used to detect sulphated glycosaminoglycans in a GAG/DNA assay. Taqman analysis was performed on aggrecans (AGG), collagen type 1 (col-1), collagen type 2 (col-2), and MMP 3, MMP 9 and MMP 13. In FIGS. 19A-C and 20A-C, annulus fibrosus and nucleus pulposus cells from bovine caudal discs were isolated by enzymatic digestion and seeded (2×10^6 cells/cm2) onto Millipore CM filters coated with Collagen Type II and cultured in DMEM/20% heat-inactivated FBS/100 ug/ml ascorbic acid and 5 ng/ml TGF-β1.

[11] = test system: annulus fibrosus and nucleus pulposus cells from bovine caudal discs treated with IL-1β; assay: 3D in vitro disc cell model: GAG (DMMB); type: cell-based; conditions: 10 ng/ml IL-1β; inhibitor 1 μM, rhGDF-5 200 ng/ml
Description: as §10

[12] = 10 ng/ml TNFα, four or five days
[13] = at 1 ng/ml, TNFα stimulated responses

In the case of `Nc1nc(Nc2ccc(S(N)(=O)=O)cc2)nn1C(=O)c1c(F)cccc1F` [JNJ 7706621, 4-[5-Amino-1-(2,6-difluoro-benzoyl)-1H-[1,2,4]triazol-3-ylamino]-benzenesulfonamide], the “antitumor activity (in words)” value [1] is reported as “single agent antitumor activity”, the “GAG release (in words)” value [2] is reported as “completely blocked” and the “cytotoxicity to chondrocytes, LDH (in words)” value (chondrocytes) is reported as “little toxicity”. The inhibition at 5 µM [3] was 100%, the IC50 (CDK1) was 9 nM and the inhibition at 5 µM ([4]; Bos taurus, Chondrocyte) was 100%. The “NO production (in words)” value ([4]; ARC tissues, 7.5 ng/ml IL-1, five days) was “completely blocked”, the “cell cycle effects (in words)” value (human cancer cell lines) was “induced G2M arrest, endoreduplication and apoptosis” and the IC50 (human cancer cell lines; Homo sapiens, in 9 cell lines, read-out: inhibits cell proliferation in culture, IC50) was 337 ± 123 nM. The solubility (Water solubility; at pH 7.4) was 17 µg/mL (≈ 43.1 µM), the solubility (Water solubility; water, simulated gastric fluid, at pH 2, read-out: solubility) was 6 µg/mL (≈ 15.2 µM) and the “PGE2 Inhibition, Pellet Assay (in words)” value ([5]; Table 3B) was “No effect”. The “PGE2 synthesis (in words)” value ([5]; at 5 μM, ARC tissues, 7.5 ng/ml IL-1, five days) was “little effect”.

For “REMICADE®: monoclonal antibody against human TNFα”, the “IL-1β stimulated responses: GAG release (in words)” value ([6]; 5 ng/ml IL-1β) was “little effect”, the “TNFα-induced GAG release (in words)” value [6, 12] was “strongly inhibited” and the “GAG Release (inhibition), Pellet Assay” value [6, 13] was 100% at 1 ng/ml. The “IL-1β stimulated responses: NO production (in words)” value ([7]; 5 ng/ml IL-1β) was “little effect”, the “TNFα-induced NO production (in words)” value [7, 12] was “strongly inhibited” and the “NO Inhibition, Pellet Assay” value [7, 13] was 100% at. For the same molecule, the “half-life when administered systemically” value [8] was “about 1 week”, the “IL-1β stimulated responses: PGE2 synthesis (in words)” value ([9]; 5 ng/ml IL-1β) was “little effect” and the “TNFα-induced PGE2 synthesis (in words)” value [9, 12] was “strongly inhibited”. The “PGE2 Inhibition, Pellet Assay” value ([9]; at 1 ng/ml) was 50% at 1 ng/ml and the “PGE2 Inhibition, Pellet Assay” value ([9]; at 10 ng/ml) was 100% at.

B1: rhGDF-5: growth and differentiation factor, member of the BMP family and TGF-beta superfamily (protein, UniProt P43026 382-501, looked up)
Growth/differentiation factor …: APLATRQGKRPSKNLKARCSRKALHVNFKDMGWDDWIIAPLEYEAFHCEGLCEFPLRSHLEPTNHAVIQTLMNSMDPESTPPTCCVPTRLSPISILFIDSANNVVYKQYEDMVVESCGCR
In the case of B1, the “gene expression of Agg and Col 2 (in words)” value [10] is reported as “restored” and the “amount of GAG in the tissue (in words)” value [11] is reported as “restored”.

— US20090162351A1, “Transdiscal administration of inhibitors of p38 MAP kinase” (DePuy Spine, Inc., priority 2007, published 2009)
